Source: patent publication EP3243509A1, “OROBUCCAL ABSORPTION COMPOSITION FOR NEURO-PROTECTION” (priority 2016, dated 2017)

Key:
[1] = test system: rat model with Alzheimer disease; conditions: Salkovic-Petrisic et al. 2014; cited from earlier work
multiple sclerosis (MS) = conditions: part intravenously, part per os; Hartstein and Ulett 1957; cited from earlier work
[2] = test system: open-angle acute primary glaucoma; assay: Clinical Case Report 2; type: in vivo, patient; conditions: ophthalmic treatment for IOP, after 4 months of treatment

Row | Compound | effect of the oral treatment (learning capacity and memory) [1] | symptoms of the disease (multiple sclerosis (MS)) | field of vision and acuity [2]
1 | O=C[C@H](O)[C@@H](O)[C@@H](O)[C@H](O)CO [D-galactose] | beneficial effect | improved the symptoms of the disease | –
2 | CC(C)NCC(O)COc1ccc(CCOCC2CC2)cc1 (stereo not drawn) [beta-toxolol, betaxolol] | – | – | not improved
